Experimental data taken from PubChem BioAssay (NCI).
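48-hour exposure; five concentrations; linearly interpolated endpoints. Abbreviation: GI50, concentration required for 50% inhibition of growth. Definition used: TGI = concentration required for complete inhibition of growth.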

Tested on: MDA-MB-468 breast
Test: growth of human tumour cells (NCI), 48 h

Compared with `CC1=CCC(OC(=O)C(C)(C)CCC(O)(C(=O)OC2(C(C)C)CCC3(C)OC3C2)C(C)C)(C(C)C)CC1` (stereo unspecified), `CC(C)[C@@]12C[C@@H](OC(=O)COC(=O)/C=C/c3ccccc3)[C@@](C)(O1)[C@@H]1CC[C@@H](C)[C@H]1[C@@H]2OC(=O)/C=C/c1ccccc1` is higher in GI50: 351 nM for the first, greater than 61400 nM for the second.

`CCCCCc1ccc(S(=O)(=O)Nc2cccc(-c3csc(NCCN4CCN(C)CC4)n3)c2)cc1` and `CCN1CCN(CC(=O)Nc2nc3ccc(NCc4ccc(Cl)cc4)cc3s2)CC1` are within 1.5-fold of each other in GI50: 1630 nM for the first, 1770 nM for the second.

Going from `O=C(CCCCCCSc1nc(-c2ccccc2)cc(-c2ccccc2)n1)NO` to `N=c1c2c(-c3ccccc3)c(-c3ccccc3)n(Cc3ccccc3)c2ncn1CCCO`, the GI50 falls from 2770 nM to 581 nM (4.8-fold).

Compared with `O=C1/C(=C/c2ccccc2F)CNC/C1=C\c1ccccc1F`, `Cn1ccc2c(c1=O)C(=O)c1nccc3c1c-2nc1ccccc13` is 2.3-fold higher in GI50: 626 nM for the first, 1440 nM for the second.

`COc1ccc(-c2cc(-c3ccccc3)nc(N3CCN(CCNc4ccnc5cc(Cl)ccc45)CC3)n2)cc1` and `CN1CCN(c2nc(NCCCCNc3ccnc4cc(Cl)ccc34)c3ccccc3n2)CC1` are within 1.5-fold of each other in GI50: 1220 nM for the first, 1580 nM for the second.

Going from `N#Cc1c2cccnc2c2nnc3cc(Cl)c(Cl)cc3n12` to `CCc1cccc2c3c(sc12)C(c1ccc(Cl)cc1)C(C#N)=C(N)O3` (stereo unspecified), the GI50 falls from 1100 nM to 280 nM (3.9-fold).

Compared with `Cc1nc2sc(C(=O)Nc3cccc4ccccc34)c(N)c2cc1C(=O)/C=C/c1ccccc1`, `CS(=O)(=O)c1ccc(-c2cnc(N)c(C(=O)Nc3ccccc3)n2)cc1` is higher in GI50: 194 nM for the first, greater than 37200 nM for the second.

`COc1cc(C(O)c2nc3ccccc3s2)cc(OC)c1OC` (stereo unspecified) and `COc1cc(Cn2c(=S)ss/c2=N\C(=S)N(C)C)cc(OC)c1OC` are within 1.5-fold of each other in GI50: 5680 nM for the first, 7040 nM for the second.

Compared with `COc1ccc2c(c1)c(-c1nc(-c3c[nH]c4ncccc34)cs1)cn2CCCCN1CCOCC1`, `COc1ccc(C/C(C)=C(\c2ccc(OCCN3CCOCC3)cc2)c2ccc(OC(=O)Cc3ccccc3)cc2)cc1` is 3.8-fold lower in GI50: 1950 nM for the first, 514 nM for the second.

Going from `COc1ccn2c(C(C)=O)cc(C(=O)c3ccc4c(c3)Sc3ccccc3N4)c2c1` to `COc1ccc(C(=O)COc2cccc(/C=C3\CSc4ccccc4C3=O)c2)cc1`, the GI50 rises from 159 nM to 1420 nM (8.9-fold).

First: C/C(=C\c1ccn(-c2ccc(N)c(F)c2)n1)[C@@H]1C[C@@H]2O[C@]2(C)CCC[C@H](C)[C@H](O)[C@@H](C)C(=O)C(C)(C)[C@@H](O)CC(=O)O1
Second: C[C@H]1[C@H](C)CC[C@]2(C(=O)N3CCN(C)CC3)CC[C@]3(C)C(=CC[C@@H]4[C@@]5(C)C/C(=C/c6cccnc6)C(=O)C(C)(C)[C@@H]5CC[C@]43C)[C@H]12
The GI50 of the first is 67-fold lower: 9.96 nM for the first, 665 nM for the second.

First: C=C(C)[C@@H]1CC[C@]2(C(=O)NCCNCCNCCN)CC[C@]3(C)[C@H](CC[C@@H]4[C@@]5(C)CC[C@H](O)C(C)(C)[C@@H]5CC[C@]43C)[C@@H]12
Second: C=CC1=C[C@@H]2[C@@H]3O[C@]4(CC[C@H](O4)[C@@H](C)C[C@@H](O)C3=O)C[C@H](O)C3=NCC[C@@]32CC1
The GI50 of the first is higher: 8880 nM for the first, less than 3.33 nM for the second.

First: C=CCNCCCN1C(=O)c2ccc3c4c(ccc(c24)C1=O)C(=O)N(CCCNCC=C)C3=O
Second: O=C1c2ccc3c4c5ccc(c24)C(=O)N1CCCOCCCCOCCCNCc1ccc(cc1)CNCCCOCCCCOCCCN(C3=O)C5=O
The GI50 of the first is 4.5-fold lower: 177 nM for the first, 802 nM for the second.

First: O=C1CC(c2ccc3c(c2)OCO3)Nc2cc3c(cc21)OCO3 (stereo unspecified)
Second: O=C1/C(=C/c2ccc([N+](=O)[O-])o2)Oc2ccc(Br)cc21
The GI50 of the first is 6.8-fold lower: 295 nM for the first, 2020 nM for the second.

First: NC1=C(Br)C(=O)c2ncccc2C1=O
Second: Cc1cc(NC(=O)NC(=O)c2ccccc2N)ccc1Oc1ncc(Br)cn1
The GI50 of the first is higher: 570 nM for the first, less than 10 nM for the second.

Going from `COc1ccc(C(=O)/C=C/c2c(C(F)(F)F)nc3sccn23)cc1OC` to `COc1ccc(-c2nnc(SCC(=O)Nc3ccc(/C(C)=N\O)cc3)n2-c2ccccc2)cc1OC`, the GI50 rises from 6180 nM to 16400 nM (2.7-fold).

Compared with `CN(c1ccc(NC(=O)Nc2ccc(OC(F)(F)F)cc2)cc1)c1ccnc(Nc2cccc(S(N)(=O)=O)c2)n1`, `CN(C)c1ccc(-c2cc(-c3ccc(Nc4nc(Nc5ccccc5)nc(Nc5ccc(Cl)cc5)n4)cc3)nc(N)n2)cc1` is 2-fold higher in GI50: 3930 nM for the first, 7910 nM for the second.

Going from `COC(=O)c1cc(-c2cc(OC)c(OC)c(OC)c2)[nH]c1N/N=C/c1c(Cl)cccc1Cl` to `COc1ccc(-c2cnnn2-c2cc(OC)c3c(c2)OCO3)cc1`, the GI50 falls from 8290 nM to 56.5 nM (150-fold).

`Cn1ccnc1C(=O)/C=C/c1ccc(CC(=O)Nc2ccc(S(F)(F)(F)(F)F)cc2)cc1` and `CC(C)(C)c1cc(NC(=O)Nc2ccc(-c3cn4c5c(sc4n3)CCc3c[nH]cc3-5)cc2)no1` are within 1.5-fold of each other in GI50: 2480 nM for the first, 1970 nM for the second.

Compared with `Cc1ccc2cc3c(ccc4ccccc43)c3c2c1CC3`, `CCN(CCNc1ccc(C)c2sc3cc(Cl)ccc3c(=O)c12)CC(C)O` (stereo unspecified) is 10-fold higher in GI50: 169 nM for the first, 1740 nM for the second.

Compared with `C[C@]12CC[C@@H]3c4ccc(O)cc4CC[C@H]3[C@@H]1CC[C@@H]2NS(=O)(=O)c1cccc(C(F)(F)F)c1`, `CC(CN1CCN(C)CC1)CN1c2ccccc2Sc2ccc(C(F)(F)F)cc21` (stereo unspecified) is 2.5-fold lower in GI50: 4080 nM for the first, 1630 nM for the second.

First: NC(=O)c1cc([N+](=O)[O-])c(Cl)c([N+](=O)[O-])c1
Second: Cn1c(=O)c(Oc2ccc(F)cc2F)cc2cnc(NC(CO)CO)nc21
The GI50 of the first is lower: 1670 nM for the first, greater than 25000 nM for the second.

Compared with `Cc1nc2cnc3cc(F)c(-c4ccc(Oc5ncccn5)cc4Cl)cc3c2n1[C@H]1CCN(C(=O)CO)C[C@@H]1F`, `CCCCCCCCCCCCCCCC[N+](C)(C)CCN(Cc1ccc(OC)cc1)c1ncccn1` is 9.1-fold lower in GI50: 9470 nM for the first, 1040 nM for the second.

First: CC1=CCC(OC(=O)C(C)(C)CCC(O)(C(=O)OC2(C(C)C)CCC3(C)OC3C2)C(C)C)(C(C)C)CC1 (stereo unspecified)
Second: CC(C)[C@@]12C[C@@H](OC(=O)COC(=O)/C=C/c3ccccc3)[C@@](C)(O1)[C@@H]1CC[C@@H](C)[C@H]1[C@@H]2OC(=O)/C=C/c1ccccc1
The TGI of the first is lower: 1.24 µM for the first, greater than 100 µM for the second.

`CCCCCc1ccc(S(=O)(=O)Nc2cccc(-c3csc(NCCN4CCN(C)CC4)n3)c2)cc1` and `CCN1CCN(CC(=O)Nc2nc3ccc(NCc4ccc(Cl)cc4)cc3s2)CC1` are within 1.5-fold of each other in TGI: 3.16 µM for the first, 4.61 µM for the second.

Compared with `O=C(CCCCCCSc1nc(-c2ccccc2)cc(-c2ccccc2)n1)NO`, `N=c1c2c(-c3ccccc3)c(-c3ccccc3)n(Cc3ccccc3)c2ncn1CCCO` is 5-fold lower in TGI: 10.5 µM for the first, 2.09 µM for the second.

`O=C1/C(=C/c2ccccc2F)CNC/C1=C\c1ccccc1F` and `Cn1ccc2c(c1=O)C(=O)c1nccc3c1c-2nc1ccccc13` are within 1.5-fold of each other in TGI: 2.75 µM for the first, 2.81 µM for the second.

`COc1ccc(-c2cc(-c3ccccc3)nc(N3CCN(CCNc4ccnc5cc(Cl)ccc45)CC3)n2)cc1` and `CN1CCN(c2nc(NCCCCNc3ccnc4cc(Cl)ccc34)c3ccccc3n2)CC1` are within 1.5-fold of each other in TGI: 2.62 µM for the first, 3.66 µM for the second.

Compared with `N#Cc1c2cccnc2c2nnc3cc(Cl)c(Cl)cc3n12`, `CCc1cccc2c3c(sc12)C(c1ccc(Cl)cc1)C(C#N)=C(N)O3` (stereo unspecified) is 2.5-fold lower in TGI: 2.59 µM for the first, 1.02 µM for the second.

Compared with `Cc1nc2sc(C(=O)Nc3cccc4ccccc34)c(N)c2cc1C(=O)/C=C/c1ccccc1`, `CS(=O)(=O)c1ccc(-c2cnc(N)c(C(=O)Nc3ccccc3)n2)cc1` is higher in TGI: 0.745 µM for the first, greater than 100 µM for the second.

First: COc1cc(C(O)c2nc3ccccc3s2)cc(OC)c1OC (stereo unspecified)
Second: COc1cc(Cn2c(=S)ss/c2=N\C(=S)N(C)C)cc(OC)c1OC
The TGI of the first is lower: 57.2 µM for the first, greater than 100 µM for the second.

Going from `COc1ccc2c(c1)c(-c1nc(-c3c[nH]c4ncccc34)cs1)cn2CCCCN1CCOCC1` to `COc1ccc(C/C(C)=C(\c2ccc(OCCN3CCOCC3)cc2)c2ccc(OC(=O)Cc3ccccc3)cc2)cc1`, the TGI falls from 3.98 µM to 1.47 µM (2.7-fold).

Compared with `COc1ccn2c(C(C)=O)cc(C(=O)c3ccc4c(c3)Sc3ccccc3N4)c2c1`, `COc1ccc(C(=O)COc2cccc(/C=C3\CSc4ccccc4C3=O)c2)cc1` is lower in TGI: greater than 24.8 µM for the first, 2.93 µM for the second.

Compared with `C=C(C)[C@@H]1CC[C@]2(C(=O)NCCNCCNCCN)CC[C@]3(C)[C@H](CC[C@@H]4[C@@]5(C)CC[C@H](O)C(C)(C)[C@@H]5CC[C@]43C)[C@@H]12`, `C[C@H]1[C@H](C)CC[C@]2(C(=O)N3CCN(C)CC3)CC[C@]3(C)C(=CC[C@@H]4[C@@]5(C)C/C(=C/c6cccnc6)C(=O)C(C)(C)[C@@H]5CC[C@]43C)[C@H]12` is 11-fold lower in TGI: 22.7 µM for the first, 2.04 µM for the second.

Going from `C=CCNCCCN1C(=O)c2ccc3c4c(ccc(c24)C1=O)C(=O)N(CCCNCC=C)C3=O` to `O=C1c2ccc3c4c5ccc(c24)C(=O)N1CCCOCCCCOCCCNCc1ccc(cc1)CNCCCOCCCCOCCCN(C3=O)C5=O`, the TGI rises from 0.423 µM to 1.65 µM (3.9-fold).

Compared with `C=CC1=C[C@@H]2[C@@H]3O[C@]4(CC[C@H](O4)[C@@H](C)C[C@@H](O)C3=O)C[C@H](O)C3=NCC[C@@]32CC1`, `C[C@]12CC[C@@H]3c4ccc(O)cc4CC[C@H]3[C@@H]1CC[C@@H]2NS(=O)(=O)c1cccc(C(F)(F)F)c1` is higher in TGI: less than 0.00333 µM for the first, 16.9 µM for the second.

Going from `O=C1CC(c2ccc3c(c2)OCO3)Nc2cc3c(cc21)OCO3` (stereo unspecified) to `O=C1/C(=C/c2ccc([N+](=O)[O-])o2)Oc2ccc(Br)cc21`, the TGI rises from 0.924 µM to 4.46 µM (4.8-fold).

Compared with `NC1=C(Br)C(=O)c2ncccc2C1=O`, `Cc1cc(NC(=O)NC(=O)c2ccccc2N)ccc1Oc1ncc(Br)cn1` is higher in TGI: 2.13 µM for the first, greater than 100 µM for the second.

`COc1ccc(C(=O)/C=C/c2c(C(F)(F)F)nc3sccn23)cc1OC` and `COc1ccc(-c2nnc(SCC(=O)Nc3ccc(/C(C)=N\O)cc3)n2-c2ccccc2)cc1OC` cannot be ordered by TGI: greater than 100 µM for the first, greater than 100 µM for the second.

First: CN(c1ccc(NC(=O)Nc2ccc(OC(F)(F)F)cc2)cc1)c1ccnc(Nc2cccc(S(N)(=O)=O)c2)n1
Second: CN(C)c1ccc(-c2cc(-c3ccc(Nc4nc(Nc5ccccc5)nc(Nc5ccc(Cl)cc5)n4)cc3)nc(N)n2)cc1
The TGI of the first is lower: 8.86 µM for the first, greater than 100 µM for the second.

Going from `COC(=O)c1cc(-c2cc(OC)c(OC)c(OC)c2)[nH]c1N/N=C/c1c(Cl)cccc1Cl` to `COc1ccc(-c2cnnn2-c2cc(OC)c3c(c2)OCO3)cc1`, the TGI rises from 48.2 µM to greater than 100 µM.

Going from `Cn1ccnc1C(=O)/C=C/c1ccc(CC(=O)Nc2ccc(S(F)(F)(F)(F)F)cc2)cc1` to `CC(C)(C)c1cc(NC(=O)Nc2ccc(-c3cn4c5c(sc4n3)CCc3c[nH]cc3-5)cc2)no1`, the TGI rises from 5.17 µM to 32.8 µM (6.3-fold).

Going from `Cc1ccc2cc3c(ccc4ccccc43)c3c2c1CC3` to `CCN(CCNc1ccc(C)c2sc3cc(Cl)ccc3c(=O)c12)CC(C)O` (stereo unspecified), the TGI rises from 0.372 µM to 3.39 µM (9.1-fold).

Going from `NC(=O)c1cc([N+](=O)[O-])c(Cl)c([N+](=O)[O-])c1` to `Cn1c(=O)c(Oc2ccc(F)cc2F)cc2cnc(NC(CO)CO)nc21`, the TGI rises from 3.32 µM to greater than 25 µM.

Compared with `CC(CN1CCN(C)CC1)CN1c2ccccc2Sc2ccc(C(F)(F)F)cc21` (stereo unspecified), `Cc1nc2cnc3cc(F)c(-c4ccc(Oc5ncccn5)cc4Cl)cc3c2n1[C@H]1CCN(C(=O)CO)C[C@@H]1F` is 9-fold higher in TGI: 3.22 µM for the first, 28.9 µM for the second.

`CCCCCCCCCCCCCCCC[N+](C)(C)CCN(Cc1ccc(OC)cc1)c1ncccn1` was tested, and the TGI was 3.58 µM.
